Active and inactive are the calls of the source. The calls are words filed in the database; no cut-off is given here.
Legend:
Mu-type opioid receptor [1] = target: T1, Mu-type opioid receptor (Homo sapiens, UniProt P35372); test: Displacement of [3H]DAMGO from human mu opioid receptor expressed in CHO cells; type: cell-based
[2] = target: T2, Kappa-type opioid receptor (Homo sapiens, UniProt P41145); test: Displacement of [3H]U69593 from human kappa opioid receptor expressed in CHO cells; type: cell-based
T2 sequence (P41145 whole entry): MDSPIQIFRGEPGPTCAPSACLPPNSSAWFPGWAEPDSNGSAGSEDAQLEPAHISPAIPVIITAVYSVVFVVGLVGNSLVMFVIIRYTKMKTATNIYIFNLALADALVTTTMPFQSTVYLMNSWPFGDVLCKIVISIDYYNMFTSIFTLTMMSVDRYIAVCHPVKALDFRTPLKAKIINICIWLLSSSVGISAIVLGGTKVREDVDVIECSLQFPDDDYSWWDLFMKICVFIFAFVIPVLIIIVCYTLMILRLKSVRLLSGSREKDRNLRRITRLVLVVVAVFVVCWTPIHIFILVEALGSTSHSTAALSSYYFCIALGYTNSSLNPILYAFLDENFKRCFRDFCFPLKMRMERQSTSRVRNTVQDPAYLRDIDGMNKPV

Homo sapiens [3] = species: Homo sapiens; test: Selectivity ratio of Ki for human mu opioid receptor over Ki for human delta opioid receptor
Homo sapiens [4] = species: Homo sapiens; test: Selectivity ratio of Ki for human mu opioid receptor over Ki for human kappa opioid receptor
[5] = target: T3, Delta-type opioid receptor (Homo sapiens, UniProt P41143); test: biochemical
T3 sequence (P41143 whole entry): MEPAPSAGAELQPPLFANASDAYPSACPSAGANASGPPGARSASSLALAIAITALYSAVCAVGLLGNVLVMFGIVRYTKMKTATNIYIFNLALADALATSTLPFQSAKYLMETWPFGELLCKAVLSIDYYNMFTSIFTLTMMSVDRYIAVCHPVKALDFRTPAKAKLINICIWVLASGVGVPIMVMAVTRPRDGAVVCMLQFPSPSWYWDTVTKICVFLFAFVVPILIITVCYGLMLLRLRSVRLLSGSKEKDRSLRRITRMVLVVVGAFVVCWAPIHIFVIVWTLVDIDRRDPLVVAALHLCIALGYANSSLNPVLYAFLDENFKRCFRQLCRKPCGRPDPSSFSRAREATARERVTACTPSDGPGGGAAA
Description: Displacement of [3H]DPDPE from human delta opioid receptor expressed in CHO cells

Mu-type opioid receptor [6] = target: T1, Mu-type opioid receptor
Description: Activity at human mu opioid receptor by [35S]GTPgammaS binding assay

CYP3A4 = CYP3A4 (Homo sapiens, UniProt P08684); test: Inhibition of CYP3A4 at 10 uM; type: ADME
Sequence of CYP3A4 (P08684 whole entry): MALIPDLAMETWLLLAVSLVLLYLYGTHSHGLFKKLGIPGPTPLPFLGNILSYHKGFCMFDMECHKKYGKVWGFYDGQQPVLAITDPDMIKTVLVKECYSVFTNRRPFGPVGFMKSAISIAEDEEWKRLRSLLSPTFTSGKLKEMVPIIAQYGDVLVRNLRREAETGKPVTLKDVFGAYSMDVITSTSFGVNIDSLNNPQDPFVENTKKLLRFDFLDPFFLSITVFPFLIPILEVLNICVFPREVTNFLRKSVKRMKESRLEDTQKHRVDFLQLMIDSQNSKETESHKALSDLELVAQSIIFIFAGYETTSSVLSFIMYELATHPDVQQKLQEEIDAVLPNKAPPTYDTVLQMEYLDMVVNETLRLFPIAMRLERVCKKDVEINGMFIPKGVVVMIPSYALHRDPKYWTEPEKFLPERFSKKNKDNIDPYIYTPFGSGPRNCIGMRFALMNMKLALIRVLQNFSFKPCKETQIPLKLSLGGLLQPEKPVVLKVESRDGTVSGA

CYP2B6 = target: T4, CYP2B6 (Homo sapiens, UniProt P20813); test: Inhibition of CYP2B6 at 10 uM; type: ADME
T4 sequence (P20813 whole entry): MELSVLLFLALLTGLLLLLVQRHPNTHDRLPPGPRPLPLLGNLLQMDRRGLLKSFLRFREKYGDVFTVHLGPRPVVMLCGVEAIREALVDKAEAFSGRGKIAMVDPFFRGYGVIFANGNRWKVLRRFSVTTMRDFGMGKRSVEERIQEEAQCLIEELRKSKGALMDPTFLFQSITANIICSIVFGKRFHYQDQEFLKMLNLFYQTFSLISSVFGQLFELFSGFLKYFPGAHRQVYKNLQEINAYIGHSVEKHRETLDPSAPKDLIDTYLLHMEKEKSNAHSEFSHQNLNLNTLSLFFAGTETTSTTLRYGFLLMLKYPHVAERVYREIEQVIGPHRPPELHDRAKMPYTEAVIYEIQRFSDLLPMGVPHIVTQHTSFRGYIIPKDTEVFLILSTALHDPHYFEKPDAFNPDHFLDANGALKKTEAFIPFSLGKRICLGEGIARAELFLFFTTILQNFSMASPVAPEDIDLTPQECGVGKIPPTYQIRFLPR

CYP2C19 = CYP2C19 (Homo sapiens, UniProt P33261); test: Inhibition of CYP2C19 at 10 uM; type: ADME
Sequence of CYP2C19 (P33261 whole entry): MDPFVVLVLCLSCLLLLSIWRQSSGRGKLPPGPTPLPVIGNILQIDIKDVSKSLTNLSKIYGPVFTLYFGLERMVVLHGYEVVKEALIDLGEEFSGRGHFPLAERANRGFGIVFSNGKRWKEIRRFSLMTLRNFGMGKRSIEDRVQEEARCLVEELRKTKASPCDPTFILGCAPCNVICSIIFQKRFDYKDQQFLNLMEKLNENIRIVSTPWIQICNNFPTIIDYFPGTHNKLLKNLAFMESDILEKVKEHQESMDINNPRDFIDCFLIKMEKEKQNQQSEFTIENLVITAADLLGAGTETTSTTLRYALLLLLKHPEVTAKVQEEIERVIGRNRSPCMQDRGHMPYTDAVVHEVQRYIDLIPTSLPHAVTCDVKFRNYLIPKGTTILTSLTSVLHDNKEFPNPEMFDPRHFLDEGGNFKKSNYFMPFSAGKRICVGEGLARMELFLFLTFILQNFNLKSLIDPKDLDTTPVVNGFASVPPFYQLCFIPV

Rattus norvegicus [7] = test: Inhibition of self alcohol consumption in rat at 2 mg/kg using operant techniques; type: functional
[8] = target: T3, Delta-type opioid receptor; test: Agonist activity at human delta opioid receptorR by [35S]GTPgammaS binding assay; type: functional
[9] = target: T2, Kappa-type opioid receptor; test: Agonist activity at human kappa opioid receptorR by [35S]GTPgammaS binding assay; type: functional
CYP2D6 = CYP2D6 (Homo sapiens, UniProt P10635); test: in vitro
Sequence of CYP2D6 (P10635 whole entry): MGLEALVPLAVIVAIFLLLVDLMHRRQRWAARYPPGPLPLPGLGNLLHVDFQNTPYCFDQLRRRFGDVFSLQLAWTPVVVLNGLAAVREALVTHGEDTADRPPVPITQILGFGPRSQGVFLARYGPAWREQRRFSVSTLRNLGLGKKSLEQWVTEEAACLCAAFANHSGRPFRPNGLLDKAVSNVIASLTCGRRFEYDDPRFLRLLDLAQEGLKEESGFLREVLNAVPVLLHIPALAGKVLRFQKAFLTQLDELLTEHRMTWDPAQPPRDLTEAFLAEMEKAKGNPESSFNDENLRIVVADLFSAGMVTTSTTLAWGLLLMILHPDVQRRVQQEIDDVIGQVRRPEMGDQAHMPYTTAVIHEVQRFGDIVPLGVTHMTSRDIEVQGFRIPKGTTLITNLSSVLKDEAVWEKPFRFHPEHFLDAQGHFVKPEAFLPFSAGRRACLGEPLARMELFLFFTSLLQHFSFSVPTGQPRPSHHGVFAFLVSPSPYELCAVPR
Description: Inhibition of CYP2D6 at 10 uM

[10] = Metabolic stability assessed as half life in mouse liver microsomes at 40 uM; type: ADME, Microsome
CYP2C9 = CYP2C9 (Homo sapiens, UniProt P11712); test: Inhibition of CYP2C9 at 10 uM; type: ADME
Sequence of CYP2C9 (P11712 whole entry): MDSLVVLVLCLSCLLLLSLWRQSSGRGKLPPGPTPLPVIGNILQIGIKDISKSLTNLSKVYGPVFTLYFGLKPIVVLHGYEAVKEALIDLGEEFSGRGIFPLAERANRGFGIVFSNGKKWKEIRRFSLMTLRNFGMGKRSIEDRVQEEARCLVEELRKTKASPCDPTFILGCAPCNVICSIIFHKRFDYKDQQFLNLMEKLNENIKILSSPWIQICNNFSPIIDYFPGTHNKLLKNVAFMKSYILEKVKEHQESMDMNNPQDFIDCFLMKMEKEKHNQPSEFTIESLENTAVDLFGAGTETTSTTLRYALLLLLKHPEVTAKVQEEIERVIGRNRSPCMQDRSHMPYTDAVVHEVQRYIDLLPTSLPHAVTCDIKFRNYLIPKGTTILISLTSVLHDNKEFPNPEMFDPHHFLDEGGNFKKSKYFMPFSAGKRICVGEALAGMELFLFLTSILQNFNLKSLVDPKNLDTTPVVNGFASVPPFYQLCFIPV

Rattus norvegicus [11] = species: Rattus norvegicus; test: Inhibition of self alcohol consumption in rat using operant techniques; type: functional
[12] = target: T3, Delta-type opioid receptor; test: Activity at human delta opioid receptor by [35S]GTPgammaS binding assay; type: functional

T1 sequence (P35372 whole entry): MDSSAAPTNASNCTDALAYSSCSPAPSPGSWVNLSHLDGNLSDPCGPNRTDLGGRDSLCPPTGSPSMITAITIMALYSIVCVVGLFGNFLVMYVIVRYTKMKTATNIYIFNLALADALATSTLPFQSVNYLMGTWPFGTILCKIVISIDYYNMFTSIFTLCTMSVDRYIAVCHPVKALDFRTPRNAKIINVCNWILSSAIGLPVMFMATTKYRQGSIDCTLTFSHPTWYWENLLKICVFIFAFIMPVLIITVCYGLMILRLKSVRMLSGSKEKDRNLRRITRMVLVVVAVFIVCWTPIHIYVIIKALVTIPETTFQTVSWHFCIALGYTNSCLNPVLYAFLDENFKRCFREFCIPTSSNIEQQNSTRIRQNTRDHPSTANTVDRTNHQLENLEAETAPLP

Which results are given for O=C(Cc1cccs1)N[C@@H]1CC[C@@]2(O)[C@H]3Cc4ccc(O)c5c4[C@@]2(CCN3CC2CC2)[C@H]1O5?
Ki (Mu-type opioid receptor [1]): 0.43 nM; Ki [2]: 1.2 nM; Ratio Ki (Homo sapiens [3]): 75; Ratio Ki (Homo sapiens [4]): 2.8; Ki [5]: 32.4 nM; Ke (Mu-type opioid receptor [6]): 0.41 nM

Which Ki (Mu-type opioid receptor [1]) does the source give for COC(=O)c1ccc(C(=O)N[C@@H]2CC[C@@]3(O)[C@H]4Cc5ccc(O)c6c5[C@@]3(CCN4CC3CC3)[C@H]2O6)cc1 here?
Its Ki is 0.21 nM.

And the Ki [2]?
Its Ki is 0.73 nM.

And the Ratio Ki (Homo sapiens [3])?
The Ratio Ki was 130.

What about the Ratio Ki (Homo sapiens [4]) of the same compound?
The Ratio Ki was 3.5.

And the Ki [5]?
Its Ki is 27.2 nM.

With O=C(/C=C/Cc1ccccc1)N[C@@H]1CC[C@@]2(O)[C@H]3Cc4ccc(O)c5c4[C@@]2(CCN3CC2CC2)[C@H]1O5 as the compound, how does the Ki (Mu-type opioid receptor [1]) read?
The Ki was 0.06 nM.

What about the Ki [2] of the same compound?
The Ki was 0.91 nM.

And the Ratio Ki (Homo sapiens [3])?
The Ratio Ki was 100.

What about the Ratio Ki (Homo sapiens [4]) of the same compound?
Its Ratio Ki is 20.

What about the Ki [5] of the same compound?
The Ki was 8.22 nM.

With COc1cccc(C(=O)N[C@@H]2CC[C@@]3(O)[C@H]4Cc5ccc(O)c6c5[C@@]3(CCN4CC3CC3)[C@H]2O6)c1 as the compound, how does the Ki (Mu-type opioid receptor [1]) read?
Its Ki is 0.12 nM.

And the Ki [2]?
The Ki was 0.24 nM.

And the Ratio Ki (Homo sapiens [3])?
Its Ratio Ki is 32.

And the Ratio Ki (Homo sapiens [4])?
Its Ratio Ki is 2.

And the inhibition at 10 µM (CYP3A4)?
Its inhibition at 10 µM is 44.9%.

And the inhibition at 10 µM (CYP2B6)?
Its inhibition at 10 µM is 49.3%.

And the inhibition at 10 µM (CYP2C19)?
Its inhibition at 10 µM is 47.1%.

And the inhibition in vivo at 2 mg/kg (Rattus norvegicus [7])?
The inhibition in vivo at 2 mg/kg was 75%.

What about the Activity [8] of the same compound?
Its Activity is “Active”.

What about the Activity [9] of the same compound?
The Activity was “Active”.

And the inhibition at 10 µM (CYP2D6)?
Its inhibition at 10 µM is 31.2%.

And the Ki [5]?
The Ki was 3.8 nM.

And the Ke (Mu-type opioid receptor [6])?
The Ke was 0.17 nM.

Which Ki (Mu-type opioid receptor [1]) does the source give for O=C(CCc1ccccc1)N[C@@H]1CC[C@@]2(O)[C@H]3Cc4ccc(O)c5c4[C@@]2(CCN3CC2CC2)[C@H]1O5 here?
The Ki was 0.12 nM.

What about the Ki [2] of the same compound?
The Ki was 0.09 nM.

And the Ratio Ki (Homo sapiens [3])?
Its Ratio Ki is 100.

And the Ratio Ki (Homo sapiens [4])?
The Ratio Ki was 0.8.

And the Ki [5]?
The Ki was 12.2 nM.

What about the Ke (Mu-type opioid receptor [6]) of the same compound?
Its Ke is 0.15 nM.

What does the source list for O=C(N[C@@H]1CC[C@@]2(O)[C@H]3Cc4ccc(O)c5c4[C@@]2(CCN3CC2CC2)[C@H]1O5)c1ccc(Cl)cc1?
half-life at 40 µM [10]: 4.25 h; inhibition at 10 µM (CYP3A4): 30.8%; inhibition at 10 µM (CYP2B6): 7%; inhibition at 10 µM (CYP2C9): 28.1%; inhibition at 10 µM (CYP2C19): 39.1%; ED50 (Rattus norvegicus [11]): 0.5 mg/kg; inhibition at 10 µM (CYP2D6): 4.7%

What does the source list for COc1cccc(CC(=O)N[C@@H]2CC[C@@]3(O)[C@H]4Cc5ccc(O)c6c5[C@@]3(CCN4CC3CC3)[C@H]2O6)c1?
Ki (Mu-type opioid receptor [1]): 0.13 nM; Ki [2]: 0.45 nM; Ratio Ki (Homo sapiens [3]): 120; Ratio Ki (Homo sapiens [4]): 3.5; Ki [5]: 15.8 nM

What does the source list for O=C(Cc1cccs1)N[C@H]1CC[C@@]2(O)[C@H]3Cc4ccc(O)c5c4[C@@]2(CCN3CC2CC2)[C@H]1O5?
Ki (Mu-type opioid receptor [1]): 0.38 nM; Ki [2]: 2.74 nM; Ratio Ki (Homo sapiens [3]): 5.5; Ratio Ki (Homo sapiens [4]): 7.2; Ki [5]: 2.07 nM

Which Ki (Mu-type opioid receptor [1]) does the source give for COc1cc(OC)cc(C(=O)N[C@H]2CC[C@@]3(O)[C@H]4Cc5ccc(O)c6c5[C@@]3(CCN4CC3CC3)[C@H]2O6)c1 here?
The Ki was 0.19 nM.

And the Ki [2]?
The Ki was 2.41 nM.

What about the Ratio Ki (Homo sapiens [3]) of the same compound?
The Ratio Ki was 36.

What about the Ratio Ki (Homo sapiens [4]) of the same compound?
Its Ratio Ki is 13.

What about the Ki [5] of the same compound?
The Ki was 6.83 nM.

For Nc1ccc(C(=O)N[C@@H]2CC[C@@]3(O)[C@H]4Cc5ccc(O)c6c5[C@@]3(CCN4CC3CC3)[C@H]2O6)cc1, which Ki (Mu-type opioid receptor [1]) is on record?
The Ki was 0.43 nM.

And the Ki [2]?
Its Ki is 0.4 nM.

What about the Ratio Ki (Homo sapiens [3]) of the same compound?
Its Ratio Ki is 85.

What about the Ratio Ki (Homo sapiens [4]) of the same compound?
The Ratio Ki was 0.93.

And the Ki [5]?
The Ki was 36.5 nM.

Which Ki (Mu-type opioid receptor [1]) does the source give for O=C(C[C@@H]1O[C@H](COCc2ccccc2)[C@@H](OCc2ccccc2)[C@H](OCc2ccccc2)[C@H]1OCc1ccccc1)N[C@H]1CC[C@@]2(O)[C@H]3Cc4ccc(O)c5c4[C@@]2(CCN3CC2CC2)[C@H]1O5 here?
The Ki was 1.49 nM.

And the Ki [2]?
Its Ki is 0.51 nM.

And the Ratio Ki (Homo sapiens [3])?
Its Ratio Ki is 16.5.

And the Ratio Ki (Homo sapiens [4])?
The Ratio Ki was 0.34.

What about the Ke [12] of the same compound?
The Ke was 10.3 nM.

And the Ki [5]?
Its Ki is 24.5 nM.

What about the Ke (Mu-type opioid receptor [6]) of the same compound?
Its Ke is 0.16 nM.

Which results are given for O=C(N[C@@H]1CC[C@@]2(O)[C@H]3Cc4ccc(O)c5c4[C@@]2(CCN3CC2CC2)[C@H]1O5)c1ccccc1?
Ki (Mu-type opioid receptor [1]): 0.18 nM; Ki [2]: 0.16 nM

Which results are given for O=C(O)c1ccc(C(=O)N[C@@H]2CC[C@@]3(O)[C@H]4Cc5ccc(O)c6c5[C@@]3(CCN4CC3CC3)[C@H]2O6)cc1?
Ki (Mu-type opioid receptor [1]): 10.1 nM; Ki [2]: 151 nM; Ratio Ki (Homo sapiens [3]): 7860; Ratio Ki (Homo sapiens [4]): 14.9; Ki [5]: 79.2 nM

Reference: ChEMBL document CHEMBL1142345, “Synthesis and biological evaluation of alpha- and beta-6-amido derivatives of 17-cyclopropylmethyl-3, 14beta-dihydroxy-4, 5alpha-epoxymorphinan: potential alcohol-cessation agents” (J Med Chem, 2008)
